Measured values published in PubChem BioAssay (NCI).
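In this assay, cells in 96-well plates receive the compound at five concentrations for 48 hours. Endpoints are linearly interpolated between the surrounding concentrations. The concentration for 50% growth inhibition is given as GI50. TGI is the concentration that stops growth completely.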

Legend:
Test in all cases: DTP human tumour cell line panel, 48 h
A549 NSCLC = test system: A549 NSCLC
HCT-15 colon = test system: HCT-15 colon
HT29 colon = test system: HT29 colon
LOX IMVI melanoma = test system: LOX IMVI melanoma
M14 melanoma = test system: M14 melanoma
MDA-MB-231 breast = test system: MDA-MB-231 breast
PC-3 prostate = test system: PC-3 prostate
SF-268 CNS = test system: SF-268 CNS
U251 CNS = test system: U251 CNS

## COc1ccc(-c2onc(N)c2-c2cc(OC)c3c(c2)OCO3)cc1
A549 NSCLC
  GI50: 2.95 µM
  TGI: > 100 µM
HCT-15 colon
  GI50: 0.958 µM
  TGI: > 100 µM
HT29 colon
  GI50: 1.65 µM
  TGI: 11.9 µM
LOX IMVI melanoma
  GI50: 3.68 µM
  TGI: > 100 µM
M14 melanoma
  GI50: 1.49 µM
  TGI: 7.28 µM
MDA-MB-231 breast
  GI50: 3.4 µM
  TGI: 65.8 µM
PC-3 prostate
  GI50: 4.69 µM
  TGI: > 100 µM
SF-268 CNS
  GI50: 8.58 µM
  TGI: > 100 µM
U251 CNS
  GI50: 2.79 µM
  TGI: > 26.1 µM

## O=c1cc(-c2ccccc2)oc2cc(OC/C(=N/O)c3ccccc3)ccc12
A549 NSCLC
  GI50: 31.7 µM
  TGI: > 50 µM
HCT-15 colon
  GI50: 22.2 µM
  TGI: > 50 µM
HT29 colon
  GI50: 22.4 µM
  TGI: > 50 µM
LOX IMVI melanoma
  GI50: 30.5 µM
  TGI: > 50 µM
M14 melanoma
  GI50: > 50 µM
  TGI: > 50 µM
MDA-MB-231 breast
  GI50: 6.98 µM
  TGI: 23.9 µM
PC-3 prostate
  GI50: 9.4 µM
  TGI: 38.4 µM
SF-268 CNS
  GI50: 11.5 µM
  TGI: 31 µM
U251 CNS
  GI50: 10.1 µM
  TGI: 20 µM

## O=C1CCC(N2C(=O)c3ccccc3C2=O)C(=O)N1CO (stereo not drawn)
A549 NSCLC
  GI50: > 100 µM
  TGI: > 100 µM
HCT-15 colon
  GI50: 52.2 µM
  TGI: > 100 µM
HT29 colon
  GI50: 42.1 µM
  TGI: > 100 µM
LOX IMVI melanoma
  GI50: 23.6 µM
  TGI: 58 µM
M14 melanoma
  GI50: 54.7 µM
  TGI: > 100 µM
MDA-MB-231 breast
  GI50: > 100 µM
  TGI: > 100 µM
PC-3 prostate
  GI50: 47.2 µM
  TGI: > 100 µM
SF-268 CNS
  GI50: > 100 µM
  TGI: > 100 µM
U251 CNS
  GI50: 90.8 µM
  TGI: > 100 µM

## Cc1ccc(-c2nc3nc(-c4ccccc4)nc(N4CCCNCC4)c3o2)cc1
A549 NSCLC
  GI50: 1.65 µM
  TGI: 3.06 µM
HCT-15 colon
  GI50: 1.58 µM
  TGI: 3.23 µM
HT29 colon
  GI50: 1.6 µM
  TGI: 3.08 µM
LOX IMVI melanoma
  GI50: 1.76 µM
  TGI: 3.29 µM
M14 melanoma
  GI50: 1.96 µM
  TGI: 3.69 µM
MDA-MB-231 breast
  GI50: 1.81 µM
  TGI: 3.32 µM
PC-3 prostate
  GI50: 1.69 µM
  TGI: 3.17 µM
SF-268 CNS
  GI50: 1.74 µM
  TGI: 3.63 µM
U251 CNS
  GI50: 1.54 µM
  TGI: 2.91 µM

## CCCC(=O)OCC1OC(n2cnc3c(=S)nc[nH]c32)C(OC(=O)CCC)C1OC(=O)CCC (stereo not drawn)
A549 NSCLC
  GI50: 38.1 µM
  TGI: > 100 µM
HCT-15 colon
  GI50: 7.22 µM
  TGI: > 100 µM
HT29 colon
  GI50: 3.63 µM
  TGI: > 100 µM
LOX IMVI melanoma
  GI50: 2.34 µM
  TGI: > 100 µM
M14 melanoma
  GI50: 2.23 µM
  TGI: > 100 µM
MDA-MB-231 breast
  GI50: 5.71 µM
  TGI: > 100 µM
PC-3 prostate
  GI50: 3.72 µM
  TGI: > 100 µM
SF-268 CNS
  GI50: 5.95 µM
  TGI: > 100 µM
U251 CNS
  GI50: 62 µM
  TGI: > 100 µM

## N#CSC1CCCCNC1=O (stereo not drawn)
A549 NSCLC
  TGI: 60 µM
HCT-15 colon
  TGI: 28.6 µM
HT29 colon
  TGI: 26.5 µM
LOX IMVI melanoma
  TGI: > 100 µM
M14 melanoma
  TGI: 39.3 µM
MDA-MB-231 breast
  TGI: 33 µM
PC-3 prostate
  TGI: 34 µM
SF-268 CNS
  TGI: 26.2 µM
U251 CNS
  TGI: 42.6 µM

## COc1ccc2c(c1)C(=O)c1c-2n(CCCn2ccnc2)c(=O)c2cc([N+](=O)[O-])ccc12
A549 NSCLC
  GI50: < 0.01 µM
HCT-15 colon
  GI50: < 0.0329 µM
  TGI: > 100 µM
HT29 colon
  GI50: < 0.01 µM
  TGI: > 100 µM
LOX IMVI melanoma
  GI50: < 0.01 µM
  TGI: 0.0351 µM
M14 melanoma
  GI50: < 0.01 µM
  TGI: < 0.01 µM
MDA-MB-231 breast
  GI50: 2.59 µM
  TGI: > 100 µM
PC-3 prostate
  GI50: 0.0168 µM
  TGI: > 100 µM
SF-268 CNS
  GI50: < 0.01 µM
  TGI: > 75.5 µM
U251 CNS
  GI50: < 0.01 µM
  TGI: 0.166 µM

## COc1cc2cc(Oc3ccc(NC(=O)Nc4ccc(Cl)c(C(F)(F)F)c4)cc3)c(C)nc2cc1OCCN1CCOCC1
A549 NSCLC
  GI50: 2.13 µM
  TGI: > 100 µM
HCT-15 colon
  GI50: 1.45 µM
  TGI: 3.18 µM
HT29 colon
  GI50: 2.57 µM
  TGI: 11.2 µM
LOX IMVI melanoma
  GI50: 1.39 µM
  TGI: 2.81 µM
M14 melanoma
  GI50: 1.52 µM
  TGI: 3.45 µM
MDA-MB-231 breast
  GI50: 2 µM
  TGI: 5.07 µM
PC-3 prostate
  GI50: 1.36 µM
  TGI: 6 µM
SF-268 CNS
  GI50: 2.59 µM
  TGI: 8.44 µM
U251 CNS
  GI50: 1.76 µM
  TGI: 3.89 µM

## CC[C@@]1(c2ccccc2)C2=C(CC(C)(C)CC2=O)Nc2[nH]ncc21
A549 NSCLC
  GI50: > 100 µM
  TGI: > 100 µM
HCT-15 colon
  GI50: 89 µM
  TGI: > 100 µM
HT29 colon
  GI50: > 100 µM
  TGI: > 100 µM
LOX IMVI melanoma
  GI50: > 100 µM
  TGI: > 100 µM
M14 melanoma
  GI50: > 100 µM
  TGI: > 100 µM
MDA-MB-231 breast
  GI50: > 100 µM
  TGI: > 100 µM
PC-3 prostate
  GI50: > 100 µM
  TGI: > 100 µM
SF-268 CNS
  GI50: > 100 µM
  TGI: > 100 µM
U251 CNS
  GI50: > 100 µM
  TGI: > 100 µM

## Cc1cc(Cl)cc2c1NC(=O)C2(O)CC(=O)c1ccco1 (stereo not drawn)
A549 NSCLC
  TGI: > 100 µM
HCT-15 colon
  TGI: > 100 µM
HT29 colon
  TGI: > 100 µM
LOX IMVI melanoma
  TGI: > 69.8 µM
M14 melanoma
  TGI: > 100 µM
MDA-MB-231 breast
  TGI: > 100 µM
PC-3 prostate
  TGI: > 100 µM
SF-268 CNS
  TGI: > 100 µM
U251 CNS
  TGI: > 100 µM

## CCCn1c(=S)sc2c1nc(C)n1c(Nc3ccccc3)nnc21
A549 NSCLC
  GI50: 6.18 µM
  TGI: > 100 µM
HCT-15 colon
  GI50: 5.09 µM
  TGI: > 100 µM
HT29 colon
  GI50: 13.1 µM
  TGI: 38.3 µM
LOX IMVI melanoma
  GI50: 3.67 µM
  TGI: > 100 µM
M14 melanoma
  GI50: 4.72 µM
  TGI: 44 µM
MDA-MB-231 breast
  GI50: 9.71 µM
  TGI: 33 µM
PC-3 prostate
  GI50: 4.04 µM
  TGI: 34.5 µM
U251 CNS
  GI50: 4.02 µM
  TGI: > 100 µM

## CCCCCCCC[C@@H](O)CC(=O)N[C@@H](CC(N)=O)C(=O)N[C@@H](CCC(N)=O)C(=O)N[C@@H](CC(=O)c1cc(C)cc(O)c1C(=O)c1c(O)cccc1O)CC(C)C
A549 NSCLC
  GI50: 5.31 µM
  TGI: > 100 µM
HCT-15 colon
  GI50: 2.25 µM
  TGI: 23.8 µM
HT29 colon
  GI50: 0.404 µM
  TGI: 5.49 µM
LOX IMVI melanoma
  GI50: 1.32 µM
  TGI: 3.9 µM
M14 melanoma
  GI50: 0.735 µM
  TGI: 18.4 µM
MDA-MB-231 breast
  GI50: 0.678 µM
  TGI: 68.3 µM
PC-3 prostate
  GI50: 0.31 µM
  TGI: 47.9 µM
SF-268 CNS
  GI50: 0.374 µM
  TGI: 2.55 µM
U251 CNS
  GI50: 0.265 µM
  TGI: 2.33 µM

## O=C(O)c1nn(-c2ccccc2-c2n[nH]c(=O)[nH]c2=O)c(=O)[nH]c1=O
A549 NSCLC
  TGI: > 100 µM
HCT-15 colon
  TGI: > 100 µM
HT29 colon
  TGI: > 100 µM
LOX IMVI melanoma
  TGI: > 100 µM
M14 melanoma
  TGI: > 100 µM
MDA-MB-231 breast
  TGI: > 100 µM
PC-3 prostate
  TGI: > 100 µM
SF-268 CNS
  TGI: > 100 µM
U251 CNS
  TGI: > 100 µM

## COc1cc[nH]c1/C=C1\C(=O)Nc2ccc(F)c(C#CC3(O)CCNCC3)c21
A549 NSCLC
  GI50: 0.0985 µM
  TGI: 1.18 µM
HCT-15 colon
  GI50: 0.139 µM
  TGI: 1.93 µM
HT29 colon
  GI50: 0.0916 µM
  TGI: 1.1 µM
LOX IMVI melanoma
  GI50: 0.0645 µM
  TGI: 0.568 µM
M14 melanoma
  GI50: 0.0413 µM
  TGI: 0.684 µM
MDA-MB-231 breast
  GI50: 0.169 µM
  TGI: 1 µM
PC-3 prostate
  GI50: 0.181 µM
  TGI: 1.95 µM
SF-268 CNS
  GI50: 0.196 µM
  TGI: 0.848 µM
U251 CNS
  GI50: 0.0736 µM
  TGI: 0.984 µM

## CC1(C)OC2=C(CC1Br)C(=O)C(=O)c1ccccc12 (stereo not drawn)
A549 NSCLC
  GI50: 2.41 µM
  TGI: 4.87 µM
HT29 colon
  GI50: 2.4 µM
  TGI: 5.25 µM
LOX IMVI melanoma
  GI50: 1 µM
  TGI: 3.39 µM
M14 melanoma
  GI50: 1.9 µM
  TGI: 3.64 µM
MDA-MB-231 breast
  GI50: 2.35 µM
  TGI: 6.42 µM
PC-3 prostate
  GI50: 2.13 µM
  TGI: 4.95 µM
SF-268 CNS
  GI50: 1.75 µM
  TGI: 3.32 µM
U251 CNS
  GI50: 1.87 µM
  TGI: 3.87 µM
